Measured values as given in patent US20080227801A1, “Pharmaceutical Compositions Containing Erythrina Mulungu Derivatives, Processes for their Production and Uses Thereof” (priority 2005, published 2008).
“And” between values parts separate entries of the source, which are not always exact repeats. Identical values can stand only once. “Also recorded” adds a separate entry of the source.

Key:
Assay type in all cases: in vivo, Swiss mice
house mouse [1] = assay: Clear-dark (light/dark) transition model; settings: for Number of transitions between two compartments / Time spent in illuminated compartment: acute, mean ± EPM; for Effect on time spent in illuminated compartment (in words): versus control; for Anxiolytic effect in clear-dark model transition (in words): oral via, doses of 3 and 10 mg/kg
house mouse [2] = assay: Locomotion activity test in the arena
Excerpt: In order to avoid false positives or negatives, immediately after testing in the elevated T maze, the animals were submitted to the locomotive activity test in the arena.
The apparatus consists of a white polypropylene box with a rectangular base (40×48 cm), surrounded by 30 cm high walls. The floor is subdivided into 30 squares (8×8 cm).
In this test, the animals were placed in the center of the box and their activity was video recorded for five minutes, for subsequent analysis of the number of crossings of the quadrant areas and number of stretch-attend postures (WALSH and CUMMINS, 1976).
The results obtained with the arena were submitted to a one-way ANOVA followed by the Duncan post hoc test.

house mice = assay: Labyrinth in high T (elevated T maze) test; set-up: key to Escape: latency in seconds (maximum 300 s); settings: for Escape / Inhibitory avoidance E1 / Inhibitory avoidance E2 / Inhibitory avoidance E3 / Inhibitory avoidance E4 / Inhibitory avoidance LB (basal latency): acute, mean ± EPM; for Anxiolytic effect in Labyrinth in high T (in words): 3 and 10 mg/kg, oral via
Experimental: Swiss mice weighing 25-35 g from the central animal laboratory of the Sao Paulo State University (UNESP/Araraquara) were used.
Accordingly, lyophilized hydroalcoholic extract (50, 100, 200 and 400 mg/kg) was used, in addition to F2 (3, 6, 10, 17 and 30 mg/kg) and the alkaloids erythrartine, erythravine and 11-OH-erythravine (3 and 10 mg/kg), administered via oral intake by gavage. The standard drug used was Diazepam (DZP) in a dose of 2 mg/kg (via intraperitoneal, i.p).
The Labyrinth in high T is made with transparent glass walls and wooden floor and consists of a closed arm (30×5×15 cm) perpendicularly linked to two open arms (30×5×0.25 cm), raised at 38.5 cm above the floor by a wooden support. In this test, five consecutive measures of inhibitory avoidance were performed (basal latency, avoidances 1, 2, 3 and 4) and one measure of escape from the open arms, with intervals of 30 seconds between each attempt. In the avoidance measures, the animals were placed in the distal section of the closed arm and the exit latency of this arm, on all four paws, towards the open arm was timed. In the escape measure, the animals were placed in the extremity of the right-hand open arm and the departure time from this arm was measured. The animals' maximum length of stay in the arms of the maze during these measures was 300 seconds. The apparatus was cleaned with ethanol 20% after testing each animal.
The results obtained from the Labyrinth in high T submitted to a two-way analysis of variance (ANOVA), with treatment being an independent factor and attempts being a dependent factor.

[3] = 2 mg/kg i.p., acute, five minutes, mean ± EPM
[4] = 3 and 10 mg/kg oral, one-way ANOVA

COc1cc2c(cc1OC)[C@]13C[C@@H](O)C=CC1=CCN3C[C@H]2O [11-OH, 11-hydroxy-erythravine]
Number of transitions between two compartments (house mouse [1]; 3 mg/kg oral): 22.67 ± 2.66 | Time spent in illuminated compartment (house mouse [1]; 3 mg/kg oral): 98.67 ± 13.35 | Number of transitions between two compartments (house mouse [1]; 10 mg/kg oral): 14.00 ± 1.93 | Time spent in illuminated compartment (house mouse [1]; 10 mg/kg oral): 127.22 ± 21.83 | Effect on number of transitions between two compartments (in words) (house mouse [1]; dose of 3 mg/kg, P<0.05, listed as 11-hidroxi-erhytravine, 3 mg/kg): increased the transitions | Effect on number of transitions between two compartments (in words) (house mouse [1]; dose of 3 mg/kg, P<0.05, listed as 11-hidroxi-erythravine, 3 mg/kg): increased | Effect on time spent in illuminated compartment (in words) (house mouse [1]; dose of 10 mg/kg, listed as 11-hidroxi-erhytravine, 10 mg/kg): anxiolytic effect | Effect on time spent in illuminated compartment (in words) (house mouse [1]; dose of 10 mg/kg, listed as 11-hidroxi-erythravine, 10 mg/kg): increased expressively | Anxiolytic effect in clear-dark model transition (in words) (house mouse [1]): anxiolytic effect | Response on the locomotion activity test at the arena (in words) (house mouse [2]; 3 mg/kg): did not have an increase of the response | Escape (house mice; 3 mg/kg oral): 21.5 ± 3.7 | Inhibitory avoidance E1 (house mice; 3 mg/kg oral): 41.8 ± 14.2 | Inhibitory avoidance E2 (house mice; 3 mg/kg oral): 96.0 ± 34.4 | Inhibitory avoidance E3 (house mice; 3 mg/kg oral): 132.3 ± 39.7 | Inhibitory avoidance E4 (house mice; 3 mg/kg oral): 194.4 ± 39.5 | Inhibitory avoidance LB (basal latency) (house mice; 3 mg/kg oral): 30.7 ± 5.8 | Escape (house mice; 10 mg/kg oral): 26.8 ± 4.8 | Inhibitory avoidance E1 (house mice; 10 mg/kg oral): 30.0 ± 6.1 | Inhibitory avoidance E2 (house mice; 10 mg/kg oral): 54.0 ± 21.1 | Inhibitory avoidance E3 (house mice; 10 mg/kg oral): 66.6 ± 30.3 | Inhibitory avoidance E4 (house mice; 10 mg/kg oral): 94.8 ± 31.7 | Inhibitory avoidance LB (basal latency) (house mice; 10 mg/kg oral): 22.6 ± 3.5 | Anxiolytic effect in Labyrinth in high T (in words) (house mice): anxiolytic effect

CN1C(=O)CN=C(c2ccccc2)c2cc(Cl)ccc21 [DZP, Diazepam, reference compound]
Number of transitions between two compartments (house mouse [1]; 2 mg/kg i.p.): 20.10 ± 2.93 and 13.92 ± 1.34 and 17.42 ± 2.40 | Time spent in illuminated compartment (house mouse [1]; 2 mg/kg i.p.): 144.20 ± 17.52 and 130.00 ± 16.76 and 140.67 ± 18.59 | Effect on time spent in illuminated compartment (in words) (house mouse [1]; DZP 2 mg/kg): expressively greater; also recorded: increased expressively; also recorded: observed only for the animals group treated with DZP | Mixings (house mouse [2]; [3]): 167.4 ± 23.6 and 169.11 ± 33.2 | Raisings (house mouse [2]; [3]): 27.33 ± 2.3 and 21.11 ± 6.7 | Escape (house mice; 2 mg/kg i.p.): 19.0 ± 3.2 and 28.4 ± 7.1 and 27.1 ± 4.6 | Inhibitory avoidance E1 (house mice; 2 mg/kg i.p.): 15.3 ± 3.8 and 19.1 ± 4.0 and 11.4 ± 1.4 | Inhibitory avoidance LB (basal latency) (house mice; 2 mg/kg i.p.): 24.6 ± 4.1 and 25.4 ± 4.1 and 25.6 ± 5.9

COc1cc2c(cc1OC)[C@]13C[C@@H](O)C=CC1=CCN3CC2 [ERI, erythravine]
Number of transitions between two compartments (house mouse [1]; 3 mg/kg oral): 19.70 ± 2.96 | Time spent in illuminated compartment (house mouse [1]; 3 mg/kg oral): 115.40 ± 18.58 | Number of transitions between two compartments (house mouse [1]; 10 mg/kg oral): 19.80 ± 1.32 | Time spent in illuminated compartment (house mouse [1]; 10 mg/kg oral): 112.00 ± 10.95 | Effect on number of transitions between two compartments (in words) (house mouse [1]; [4]): did not show significant differences between groups | Effect on time spent in illuminated compartment (in words) (house mouse [1]; oral doses of 3 mg/kg and 10 mg/kg): expressively greater; also recorded: anxiolytic effect | Anxiolytic effect in clear-dark model transition (in words) (house mouse [1]): anxiolytic effect | Anxiolytic effect in Labyrinth in high T (in words) (house mice): anxiolytic effect

COc1cc2c(cc1OC)[C@]13C[C@@H](OC)C=CC1=CCN3C[C@H]2O [ERIT, erythrartine]
Number of transitions between two compartments (house mouse [1]; 3 mg/kg oral): 13.00 ± 1.56 | Time spent in illuminated compartment (house mouse [1]; 3 mg/kg oral): 67.67 ± 8.33 | Number of transitions between two compartments (house mouse [1]; 10 mg/kg oral): 14.25 ± 1.59 | Time spent in illuminated compartment (house mouse [1]; 10 mg/kg oral): 83.42 ± 14.17 | Effect on number of transitions between two compartments (in words) (house mouse [1]; [4]): did not show signified effect | Anxiolytic effect in Labyrinth in high T (in words) (house mice): anxiolytic effect
